Results published in PubChem BioAssay AID2060328 (Molecular Pharmacology Branch, DTP, NCI, 2025).

System: MDA-MB-231 multicell spheroids, viability (%T/C)
Assay: Anticancer human tumor MDA-MB-231 cell line growth inhibition [IpAb];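 further: viability read after seven days of drug exposure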;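 on viability, T/C: 100% = DMSO vehicle control viability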
Settings: for viability, T/C: stronger effect = lower value
In short: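 Combinations with ipatasertib or abemaciclib were tested on tumour spheroids holding HUVEC (25%) and MSC (15%) alongside 60% malignant cells. Top concentration was at or near clinical Cmax (10 microM if undefined), descending in half-log steps.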

[1] = curve of first compound, second compound 0.1 µM
[2] = curve of first compound, second compound 0.316 µM
[3] = curve of first compound, second compound 1 µM
[4] = curve of first compound, second compound 3.16 µM
[5] = curve of first compound, second compound 10 µM
[6] = second compound 0.1 µM, first compound 0.0316 µM
[7] = second compound 0.1 µM, first compound 0.1 µM
[8] = second compound 0.1 µM, first compound 0.316 µM
[9] = second compound 0.1 µM, first compound 1 µM
[10] = second compound 0.316 µM, first compound 0.0316 µM
[11] = second compound 0.316 µM, first compound 0.1 µM
[12] = second compound 0.316 µM, first compound 0.316 µM
[13] = second compound 0.316 µM, first compound 1 µM
[14] = second compound 1 µM, first compound 0.0316 µM
[15] = second compound 1 µM, first compound 0.1 µM
[16] = second compound 1 µM, first compound 0.316 µM
[17] = second compound 1 µM, first compound 1 µM
[18] = second compound 3.16 µM, first compound 0.0316 µM
[19] = second compound 3.16 µM, first compound 0.1 µM
[20] = second compound 3.16 µM, first compound 0.316 µM
[21] = second compound 3.16 µM, first compound 1 µM
[22] = second compound 10 µM, first compound 0.0316 µM
[23] = second compound 10 µM, first compound 0.1 µM
[24] = second compound 10 µM, first compound 0.316 µM
[25] = second compound 10 µM, first compound 1 µM
[26] = curve of first compound, second compound 0.01 µM
[27] = curve of first compound, second compound 0.0316 µM
[28] = second compound 0.01 µM, first compound 0.0316 µM
[29] = second compound 0.01 µM, first compound 0.1 µM
[30] = second compound 0.01 µM, first compound 0.316 µM
[31] = second compound 0.01 µM, first compound 1 µM
[32] = second compound 0.01 µM, first compound 3.16 µM
[33] = second compound 0.01 µM, first compound 10 µM
[34] = second compound 0.0316 µM, first compound 0.0316 µM
[35] = second compound 0.0316 µM, first compound 0.1 µM
[36] = second compound 0.0316 µM, first compound 0.316 µM
[37] = second compound 0.0316 µM, first compound 1 µM
[38] = second compound 0.0316 µM, first compound 3.16 µM
[39] = second compound 0.0316 µM, first compound 10 µM
[40] = second compound 0.1 µM, first compound 3.16 µM
[41] = second compound 0.1 µM, first compound 10 µM
[42] = second compound 0.316 µM, first compound 3.16 µM
[43] = second compound 0.316 µM, first compound 10 µM
[44] = second compound 1 µM, first compound 3.16 µM
[45] = second compound 1 µM, first compound 10 µM

Structure (SMILES)	IC50 [1] [nM]	IC50 [2] [nM]	IC50 [3] [nM]	viability, T/C [6] [%]	viability, T/C [7] [%]	viability, T/C [8] [%]	viability, T/C [9] [%]	viability, T/C [10] [%]	viability, T/C [11] [%]	viability, T/C [12] [%]	viability, T/C [13] [%]	viability, T/C [14] [%]	viability, T/C [15] [%]	viability, T/C [16] [%]	viability, T/C [17] [%]	viability, T/C [40] [%]	viability, T/C [41] [%]	viability, T/C [42] [%]	viability, T/C [43] [%]	viability, T/C [44] [%]	other results
COc1c(OCCCN2CCOCC2)ccc2c3n(c(=NC(=O)c4cnc(N)nc4)nc12)CCN3 + CC(C)NCC(C(=O)N1CCN(c2ncnc3c2C(C)CC3O)CC1)c1ccc(Cl)cc1	50.9	27.7	16.1	57.4	42.3	34.1	40.3	51.7	37.5	31.7	41	43.9	36.3	28.2	41.9	–	–	–	–	–	IC50 [4]: 4.7 nM; IC50 [5]: < 3.16 nM; viability, T/C (second compound 0.1 µM, first compound 0.00316 µM): 85.3%; viability, T/C (second compound 0.1 µM, first compound 0.01 µM): 70.1%; viability, T/C (second compound 0.316 µM, first compound 0.00316 µM): 71%; viability, T/C (second compound 0.316 µM, first compound 0.01 µM): 59.4%; viability, T/C (second compound 1 µM, first compound 0.00316 µM): 62.6%; viability, T/C (second compound 1 µM, first compound 0.01 µM): 54.4%; viability, T/C (second compound 3.16 µM, first compound 0.00316 µM): 52.1%; viability, T/C (second compound 3.16 µM, first compound 0.01 µM): 47%; viability, T/C [18]: 37.1%; viability, T/C [19]: 30.4%; viability, T/C [20]: 25.2%; viability, T/C [21]: 32.5%; viability, T/C (second compound 10 µM, first compound 0.00316 µM): 33.6%; viability, T/C (second compound 10 µM, first compound 0.01 µM): 31.9%; viability, T/C [22]: 28.2%; viability, T/C [23]: 22.6%; viability, T/C [24]: 20%; viability, T/C [25]: 31.1%
CCCS(=O)(=O)Nc1ccc(F)c(C(=O)c2c[nH]c3ncc(-c4ccc(Cl)cc4)cc23)c1F + CCN1CCN(Cc2ccc(Nc3ncc(F)c(-c4cc(F)c5nc(C)n(C(C)C)c5c4)n3)nc2)CC1	2900	887	550	70.5	66.4	66.6	62.8	52.8	53.5	51	47.8	51.9	55	53.1	45.6	48.8	32.9	44.3	23.4	43.8	IC50 [26]: 6840 nM; IC50 [27]: 4640 nM; viability, T/C [28]: 105%; viability, T/C [29]: 104%; viability, T/C [30]: 110%; viability, T/C [31]: 93.9%; viability, T/C [32]: 70.5%; viability, T/C [33]: 40.1%; viability, T/C [34]: 82.9%; viability, T/C [35]: 87.4%; viability, T/C [36]: 86.4%; viability, T/C [37]: 80.2%; viability, T/C [38]: 57.6%; viability, T/C [39]: 34.9%; viability, T/C [45]: 32.6%
CC(C)NCC(C(=O)N1CCN(c2ncnc3c2C(C)CC3O)CC1)c1ccc(Cl)cc1 (stereo unspecified)	–	–	–	–	–	–	–	–	–	–	–	–	–	–	–	–	–	–	–	–	viability, T/C (compound 0.1 µM): 95.4% [middle of 13 runs]; viability, T/C (compound 0.316 µM): 84.7% [middle of 13 runs]; viability, T/C (compound 1 µM): 70.5% [middle of 13 runs]; viability, T/C (compound 3.16 µM): 54.9% [middle of 13 runs]; viability, T/C (compound 10 µM): 39.5% [middle of 13 runs]; IC50 (compound alone, run of 06/01/2021): 4.43 µM [middle of 13 runs]
C=CC(=O)N1CCN(c2nc(=O)n(-c3c(C)ccnc3C(C)C)c3nc(-c4c(O)cccc4F)c(F)cc23)C(C)C1 (stereo unspecified) + CC(C)NCC(C(=O)N1CCN(c2ncnc3c2C(C)CC3O)CC1)c1ccc(Cl)cc1	> 10000	> 10000	> 10000	111	113	116	129	96.1	97	105	111	81.9	79.8	82.3	86	120	78.3	95.4	64.4	71	IC50 [4]: > 10000 nM; IC50 [5]: < 31.6 nM; viability, T/C [45]: 52.6%; viability, T/C [18]: 57.2%; viability, T/C [19]: 68.6%; viability, T/C [20]: 67%; viability, T/C [21]: 67.5%; viability, T/C (second compound 3.16 µM, first compound 3.16 µM): 62.1%; viability, T/C (second compound 3.16 µM, first compound 10 µM): 44.5%; viability, T/C [22]: 42.5%; viability, T/C [23]: 45.9%; viability, T/C [24]: 44.4%; viability, T/C [25]: 42.7%; viability, T/C (second compound 10 µM, first compound 3.16 µM): 41.6%; viability, T/C (second compound 10 µM, first compound 10 µM): 32.1%
Cn1ncc(Cl)c1-c1cc(C(=O)NC(CN)Cc2cccc(F)c2)sc1Cl (stereo unspecified) + CCN1CCN(Cc2ccc(Nc3ncc(F)c(-c4cc(F)c5nc(C)n(C(C)C)c5c4)n3)nc2)CC1	76.6	< 31.6	< 31.6	52.6	52	40	30.2	43.4	42.7	32.9	30.5	44.2	46.3	43.2	38.7	20.4	0.87	26	0.53	43.6	IC50 [26]: 864 nM; IC50 [27]: 378 nM; viability, T/C [28]: 87.3%; viability, T/C [29]: 77.6%; viability, T/C [30]: 66.7%; viability, T/C [31]: 45.7%; viability, T/C [32]: 27.5%; viability, T/C [33]: 0.12%; viability, T/C [34]: 73.4%; viability, T/C [35]: 64.8%; viability, T/C [36]: 51.9%; viability, T/C [37]: 36.4%; viability, T/C [38]: 23%; viability, T/C [39]: 0.11%; viability, T/C [45]: 0.79%
